One series deals with hERG channel (Homo sapiens (Human), UniProt Q12809). Briefly: hERG channel inhibition assay (patch-clamp, CHOhERG cells). The series is classed as cell-based. As to the method: The hERG K^+ channels were cloned in humans and stably expressed in a CHO (Chinese hamster ovary) cell line. CHOhERG cells were used for patch-clamp (voltage-clamp, whole-cell) experiments. Cells were stimulated by a voltage pattern to activate hERG channels and conduct IKhERG currents (rapid delayed outward rectifier potassium current of the hERG channel). […] Thereafter, the test compound was added to the preparation at increasing concentrations. For each concentration, an attempt was made to reach a steady-state effect, usually, this was achieved within 3-10 min at which time the next highest concentration was applied. The amplitude and kinetics of IKhERG are recorded in each concentration of the drug which were compared to the control values (taken as 100%). (references: Redfern W S, Carlsson L, Davis A S, Lynch W G, MacKenzie I, Palethorpe S, Siegl P K, Strang I, Sullivan A T, Wallis R, Camm A J, Hammond T G. 2003; Relationships between preclinical cardiac electrophysiology, clinical QT interval prolongation and torsade de pointes for a broad range of drugs: evidence for a provisional safety margin in drug development. Cardiovasc. Res. 58:32-45, Sanguinetti M C, Tristani-Firouzi M. 2006; hERG potassium channels and cardiac arrhythmia. Nature 440:463-469, Webster R, Leishman D, Walker D. 2002; Towards a drug concentration effect relationship for QT prolongation and torsades de pointes. Curr. Opin. Drug Discov. Devel. 5:116-26).
hERG channel, sequence (Q12809 whole entry): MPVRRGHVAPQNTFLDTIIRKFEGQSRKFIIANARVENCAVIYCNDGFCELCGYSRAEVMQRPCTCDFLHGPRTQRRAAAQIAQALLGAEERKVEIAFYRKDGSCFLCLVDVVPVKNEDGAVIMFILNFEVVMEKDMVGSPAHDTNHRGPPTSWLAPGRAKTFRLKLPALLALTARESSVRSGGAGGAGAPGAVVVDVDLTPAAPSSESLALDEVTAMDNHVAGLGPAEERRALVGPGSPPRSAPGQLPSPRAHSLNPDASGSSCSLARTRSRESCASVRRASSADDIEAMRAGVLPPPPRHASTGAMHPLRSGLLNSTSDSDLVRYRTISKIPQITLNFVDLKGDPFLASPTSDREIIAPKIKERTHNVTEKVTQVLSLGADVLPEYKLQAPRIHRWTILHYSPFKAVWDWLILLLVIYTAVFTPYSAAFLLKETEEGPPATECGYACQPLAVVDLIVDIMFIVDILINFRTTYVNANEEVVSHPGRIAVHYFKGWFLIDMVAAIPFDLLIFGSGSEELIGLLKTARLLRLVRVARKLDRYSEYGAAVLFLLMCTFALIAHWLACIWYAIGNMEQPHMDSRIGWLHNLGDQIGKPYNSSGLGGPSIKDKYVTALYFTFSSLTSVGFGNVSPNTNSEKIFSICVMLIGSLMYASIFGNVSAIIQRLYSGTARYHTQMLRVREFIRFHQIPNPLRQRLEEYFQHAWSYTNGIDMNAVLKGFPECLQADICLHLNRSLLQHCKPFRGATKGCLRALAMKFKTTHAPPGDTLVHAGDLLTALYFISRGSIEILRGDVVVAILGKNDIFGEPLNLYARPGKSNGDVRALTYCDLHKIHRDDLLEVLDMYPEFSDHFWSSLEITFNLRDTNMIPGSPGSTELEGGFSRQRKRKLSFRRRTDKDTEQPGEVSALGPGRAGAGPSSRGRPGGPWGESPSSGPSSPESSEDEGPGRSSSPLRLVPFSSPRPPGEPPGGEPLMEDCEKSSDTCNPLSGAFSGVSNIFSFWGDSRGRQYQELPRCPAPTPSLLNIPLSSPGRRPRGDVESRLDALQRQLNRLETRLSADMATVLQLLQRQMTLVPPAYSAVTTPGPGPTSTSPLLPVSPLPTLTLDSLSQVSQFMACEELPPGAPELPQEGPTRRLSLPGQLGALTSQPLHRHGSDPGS
In general terms: The hERG channel carries a current that helps repolarise heart muscle cells.

For series [1], the system named is Salmonella typhimurium tester strains (TA1535, TA97, TA98, TA100, and TA102). In words: Ames microsuspension assay. The class given is cell-based. The conditions noted are these: five strains, absence and presence of S9. As to the method: The Ames microsuspension assay examines if a compound causes DNA mutations. The method was based on a modified pre-incubation version described by Kado et al (see references: B. N. Ames, J. McCann, E. Yamasaki, Mutation Res. 1975, 31, 347-364 N.Y. Kado, D. Langley, and E. Eisenstadt, Mutation Res. 1983, 121, 25-32). Five Salmonella typhimurium tester strains (TA1535, TA97, TA98, TA100, and TA102) were treated with the test compound in absence and in presence of an exogenous metabolic activation system (S9). The bacteria were pre-incubated for 1 h, the pre-incubation volume is 210 μL (100 μL of overnight culture, 100 μL of S9 mix (10% S9) or 100 μL phosphate buffer, and 10 μL test compound solution). The overnight cultures were resuspended for the test in cold phosphate buffer. The S9 mix contains potassium chloride, magnesium chloride, sodium phosphate buffered saline, NADP^+ and glucose-6-phosphate. The test tubes are incubated and shaken for 60 minutes at 37° C. 2.2 mL soft agar supplemented with L-histidine and biotin was added afterwards and the content of the tubes were mixed and poured on Vogel-Bonner minimal agar plates.
Three replicate plates for the test compound and negative control or two replicate plates for the positive controls were incubated at 37° C., upside down, for 2 days. Colonies were counted electronically using an automatic image analysis system after having inspected the background lawn for signs of toxicity.
S9 is an in vitro metabolic system which is obtained from liver homogenates by centrifuging them at 9000 g for 20 minutes. It contains CYP450 isoforms, phase-II metabolic enzymes, etc. In the Ames microsuspension assay test, S9 is used to assess mutagenicity of compounds, some of which require metabolic activation to become mutagenic.
Criteria of the Ames microsuspension assay: a positive result is defined as a reproducible, dose-related increase in the number of revertant colonies in at least one of the strains. For TA1535 and TA98, the positive threshold is a 2-fold increase over control. For TA97, TA100 and TA102, the threshold is a 1.5-fold increase.

The nature of a further series: LYSA solubility. The class given is physicochemical. As to the method:
LYSA solubility assay is used to determine the aqueous solubility of a compound. Samples were prepared in duplicate from 10 mM DMSO stock solution. […] After one night, the solutions were filtered using a microtiter filter plate. Then the filtrate and its 1/10 dilution were analyzed by HPLC-UV.

The target of the next series is human TLR7 (Homo sapiens (Human), UniProt Q9NYK1). In words: HEK-Blue-hTLR7 cells assay (SEAP reporter). The following applies: 20 hrs, read-out: HEK-Blue-hTLR7 (EC50 (μM)). The series is classed as cell-based. A digest of the protocol:
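HEK-Blue cells stably carrying human TLR7 and an NF-κB-driven SEAP reporter, preincubated 24 h, then exposed to serially diluted compound (1% DMSO final) for 20 h at 37 °C. Supernatant SEAP measured with QUANTI-Blue substrate, 2 h at 37 °C, absorbance read at 620–655 nm.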

The test system of another series is CYP3A4. Briefly: Cytochrome P450 induction screening assay, mRNA induction in human cryopreserved hepatocytes. The series is classed as in vitro ADME. The following applies: 24 hours exposure. From the text:
Induction of cytochrome P450 enzymes is associated with an increased prevalence of clinical drug-drug interactions. The clinical consequences of induction may be therapeutic failure caused by a decreased systemic exposure of the drug itself or a co-administered therapy, or toxicity as a result of increased bioactivation. Cytochrome P450 (CYP450) induction assay has been used to understand the potential drug-drug interaction liabilities in drug discovery stage. Human cryopreserved hepatocytes (Life Technologies, Carlsbad, USA) were thawed and cultured in collagen I coated 96-well plates with a density of 52,000 cells/well. After attachment, hepatocyte maintenance medium (HMM; Lonza, Switzerland) was changed after cells were pre-cultured overnight. […] Medium change was then performed and cells were exposed for 24 hours to test compounds, positive inducer compounds, or vehicle (0.1% DMSO), respectively. At the end of the compound exposure period, medium was removed and cells lysed using 100 μL/well MagNA Pure LC RNA isolation tissue lysis buffer (Roche Diagnostics AG, Rotkreuz, Switzerland). […] mRNA isolation was performed using the MagNA Pure 96 system (Roche Diagnostics AG, Rotkreuz, Switzerland) and the respective cellular RNA large volume kit (Roche Diagnostics AG, Rotkreuz, Switzerland) from thawed samples diluted 1:1 with PBS. […] The resulting cDNA was diluted with 40 μL of H2O before using for qRT-PCR. qRT-PCR was performed by using the forward and the reverse primer, the corresponding Universal Probe Library (all from Microsynth, Balgach, Switzerland) and the Taqman Fast advanced master mix (Applied Biosystems), on an ABI 7900 machine (Applied Biosystems). qRT-PCR Ct-values for the respective P450s were put into relation to the Ct-value of RN18S1 (microsynth, Balgach, Switzerland) of the same sample. Doing so, a respective Δct-value was calculated. Using the average of all Δct-values for the vehicle control samples, a ΔΔct-value was calculated for each sample (ΔΔct-value(sample)=Δct-value(sample)−average of Δct-value of all vehicle controls). […] The individual fold induction values were then averaged per treatment condition (usually n=3 biological replicates).

The conditions of series [2]: rat, IV 1 mpk, data from WO2016023511, cited from earlier work.
Another series deals with human TLR8 (Homo sapiens (Human), UniProt Q9NR97). In words: HEK-Blue-hTLR8 cells assay and selectivity index. The series is classed as cell-based. As to the method:
A stable HEK-Blue-hTLR8 cell line was purchased from InvivoGen (Cat.#: HEK-Blue-htlr8, San Diego, Calif., USA). These cells were designed for studying the stimulation of human TLR8 by monitoring the activation of NF-κB. […] Therefore the reporter expression was regulated by the NF-κB promoter upon stimulation of human TLR8 for 20 hrs. The cell culture supernatant SEAP reporter activity was determined using QUANTI-Blue™ kit (Cat.#: rep-qb1, Invivogen, San Diego, Ca, USA) at a wavelength of 640 nm, a detection medium that turns purple or blue in the presence of alkaline phosphatase.
HEK-Blue-hTLR8 cells were incubated at a density of 250,000˜450,000 cells/mL in a volume of 180 μL in a 96-well plate in Dulbecco's Modified Eagle's medium (DMEM) containing 4.5 g/L glucose, 50 U/mL penicillin, […], […], 2 mM L-glutamine, 10% (V/V) heat-inactivated fetal bovine serum for 24 hrs. Then the HEK-Blue-hTLR8 cells were incubated with addition of 20 μL test compound in a serial dilution in the presence of final DMSO at 1% and perform incubation under 37° C. in a CO2 incubator for 20 hrs. Then 20 μL of the supernatant from each well was incubated with 180 μL Quanti-blue substrate solution at 37° C. for 2 hours and the absorbance was read at 620˜655 nm using a spectrophotometer. The signalling pathway that TLR8 activation leads to downstream NF-κB activation has been widely accepted, and therefore similar reporter assay was also widely used for evaluating TLR8 agonist (Tsuneyasu Kaisho and Takashi Tanaka, Trends in Immunology, Volume 29, Issue 7, July 2008, […]; Hiroaki Hemmi et al, Nature Immunology 3, 196-200 (2002)).
The ratio of TLR8 agonism activity compared to TLR7 agonism activity was defined as the selectivity index (EC50 (TLR8) value/EC50(TLR7) value) and calculated accordingly.

For series [3] the following is noted: patients with chronic hepatitis B, phase Ib; cited from earlier work.
Series [4] can be described thus: Metabolic stability in human liver microsomes. A digest of the protocol:
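Test compound at 1 μM with 0.5 mg/mL microsomal protein in 100 mM potassium phosphate, pH 7.4, 37 °C, 10 min preincubation, reaction started with NADPH regenerating system. Sampled at 0, 3, 6, 9, 15 and 30 min, quenched with cold ACN, remaining parent by LC-MS/MS. No-NADPH controls at 0 and 30 min.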
In general terms: Liver microsomes are a subcellular fraction often used to study metabolism.

One may read the IC20 as the concentration at which the effect reaches the 20% level. The term EC50 denotes the concentration that produces a half-maximal response. The term solubility (thermodynamic) denotes the concentration in solution at equilibrium with solid.

≈ marks a conversion by molar mass, not a printed value. Where two headings read alike, the source gives them in different places.

human TLR8, sequence (Q9NR97 27-1041): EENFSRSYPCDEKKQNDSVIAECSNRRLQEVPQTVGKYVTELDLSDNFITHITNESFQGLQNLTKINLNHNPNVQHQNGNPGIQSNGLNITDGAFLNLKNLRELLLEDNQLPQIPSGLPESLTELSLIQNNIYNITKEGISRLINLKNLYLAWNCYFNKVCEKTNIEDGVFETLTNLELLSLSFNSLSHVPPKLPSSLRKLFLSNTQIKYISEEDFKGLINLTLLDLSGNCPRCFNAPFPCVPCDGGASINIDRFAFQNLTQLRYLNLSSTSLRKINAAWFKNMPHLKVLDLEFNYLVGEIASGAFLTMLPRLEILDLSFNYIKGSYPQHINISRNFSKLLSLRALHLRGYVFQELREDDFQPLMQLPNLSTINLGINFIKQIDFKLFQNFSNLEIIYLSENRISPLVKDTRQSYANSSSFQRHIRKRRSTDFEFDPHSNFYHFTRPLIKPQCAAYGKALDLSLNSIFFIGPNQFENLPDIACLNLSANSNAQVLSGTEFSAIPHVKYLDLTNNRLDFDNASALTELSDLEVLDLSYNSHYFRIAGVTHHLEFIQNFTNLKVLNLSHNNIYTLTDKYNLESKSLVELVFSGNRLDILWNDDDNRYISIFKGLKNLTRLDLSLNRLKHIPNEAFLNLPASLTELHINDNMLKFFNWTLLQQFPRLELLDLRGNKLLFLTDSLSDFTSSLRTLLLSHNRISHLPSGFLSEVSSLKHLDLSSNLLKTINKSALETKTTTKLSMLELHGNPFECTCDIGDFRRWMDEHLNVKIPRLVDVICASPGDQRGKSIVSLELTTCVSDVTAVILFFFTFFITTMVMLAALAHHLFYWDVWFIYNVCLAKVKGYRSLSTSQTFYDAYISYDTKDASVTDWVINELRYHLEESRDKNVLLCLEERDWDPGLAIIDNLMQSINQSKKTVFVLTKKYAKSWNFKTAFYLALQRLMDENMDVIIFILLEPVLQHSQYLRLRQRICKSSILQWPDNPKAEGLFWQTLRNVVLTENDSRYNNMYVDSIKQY
human TLR7, sequence (Q9NYK1 27-1049): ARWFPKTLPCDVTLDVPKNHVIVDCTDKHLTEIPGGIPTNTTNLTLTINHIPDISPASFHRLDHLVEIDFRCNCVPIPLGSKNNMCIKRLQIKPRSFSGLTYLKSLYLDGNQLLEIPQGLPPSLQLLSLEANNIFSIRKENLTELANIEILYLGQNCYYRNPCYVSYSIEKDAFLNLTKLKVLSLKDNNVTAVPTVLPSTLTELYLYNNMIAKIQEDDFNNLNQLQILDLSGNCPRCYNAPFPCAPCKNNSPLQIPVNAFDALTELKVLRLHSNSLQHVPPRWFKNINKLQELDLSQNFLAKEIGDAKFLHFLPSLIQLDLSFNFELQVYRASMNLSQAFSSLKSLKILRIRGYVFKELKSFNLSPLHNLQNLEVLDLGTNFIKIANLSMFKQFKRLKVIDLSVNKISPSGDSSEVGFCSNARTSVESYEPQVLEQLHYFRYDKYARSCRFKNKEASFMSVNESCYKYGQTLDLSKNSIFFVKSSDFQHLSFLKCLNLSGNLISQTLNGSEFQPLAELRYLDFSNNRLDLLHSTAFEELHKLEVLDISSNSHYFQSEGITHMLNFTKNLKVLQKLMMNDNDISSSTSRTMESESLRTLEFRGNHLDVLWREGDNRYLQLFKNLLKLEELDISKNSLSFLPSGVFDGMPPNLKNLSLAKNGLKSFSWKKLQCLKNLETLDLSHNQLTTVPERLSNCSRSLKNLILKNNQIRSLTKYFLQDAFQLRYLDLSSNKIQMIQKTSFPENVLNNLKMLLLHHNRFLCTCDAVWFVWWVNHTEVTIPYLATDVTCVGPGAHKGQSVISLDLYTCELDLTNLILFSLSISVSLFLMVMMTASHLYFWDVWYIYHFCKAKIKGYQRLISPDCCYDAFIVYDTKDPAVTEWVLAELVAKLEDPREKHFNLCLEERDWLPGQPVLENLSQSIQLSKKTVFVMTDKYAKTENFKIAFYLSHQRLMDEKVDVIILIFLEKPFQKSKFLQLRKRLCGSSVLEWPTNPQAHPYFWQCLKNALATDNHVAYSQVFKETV

For `CCCS(=N)(=O)c1nc(N)c2[nH]c(=O)n(Cc3ccc(C)cc3)c2n1` (single isomer, unassigned) [Example 29-B, 6-Amino-2-(propylsulfonimidoyl)-9-(p-tolylmethyl)-7H-purin-8-one], the “Safety ratio (hERG IC20/EC50)” value on hERG channel (hERG IC20/EC50) is recorded as above 546. Besides, on hERG channel (read-out: hERG IC20), the IC20 is above 10000 nM. For the same compound, the Ames result in series [1] is on record as “negative”. Besides, the “LYSA” value in the series “LYSA solubility” (0.05 M phosphate buffer (pH 6.5)) came out at 11 µg/mL.

As for `CCCS(=N)(=O)c1nc(N)c2[nH]c(=O)n(Cc3ccc(F)cc3)c2n1` (stereo not shown) [Example 24, 6-Amino-9-[(4-fluorophenyl)methyl]-2-(propylsulfonimidoyl)-7H-purin-8-one], the EC50 at human TLR7 was found to be 0.037 µM. The same compound displayed a solubility (thermodynamic) in the series “LYSA solubility” (0.05 M phosphate buffer, pH 6.5, aqueous buffer, thermodynamic from solid) of 12 µg/mL (≈ 32.9 µM). In addition, in the series with CYP3A4, the “Relative induction of Positive control (10 μM Rifampicin) (%)” value is −0.72%.

Consider `CCCCOc1nc(N)c2c(n1)N(Cc1cccc(CN3CCCC3)c1)CC(=O)N2` [GS-9620], for which the concentration giving a half-maximal response (EC50) is 0.8 µM on human TLR7 and 11600 nM on human TLR8. The “Mean plasma concentration” value in series [2] (0.083 h) is reported as 170 nM; in series [2] (0.25 h), 102 nM; in series [2] (0.5 h), 65.4 nM; in series [2] (1 h), 48.1 nM; in series [2] (2 h), 21.6 nM; in series [2] (4 h) it was 13 nM. Also, the “Mean plasma concentration” value in [2] (8 h) is listed as 4.17 nM. Also, the “CO” value in series [2] is on record as 220 nM. This compound also showed a Selective index at human TLR8 (EC50(TLR8) value/EC50(TLR7) value) of 14. The “ISG15 mRNA induction” value in series [3] was “dose-dependent ISG15 mRNA induction”. Besides, the Safety and tolerability entry in [3] is “safe, well tolerated”. In series [4] (1 μM test compound, 0.5 mg/mL microsomal protein, 6.15 mL/min/kg is the limitation of assay sensitivity), the “Human Liver Microsome Clearance” value was found to be 17.8 mL/min/kg. In [4] (categorized low/medium/high), the “Human liver microsome clearance category” value was “high (high (16.2-23.2 mL/min/kg))”.
